{"source": "patent US8703424B2", "about": "“Predicting human developmental toxicity of pharmaceuticals using human stem-like cells and metabolomics” (Stemina Biomarker Discovery, Inc., priority 2010, dated 2014)", "key": {"[1]": {"system": "WA09 hESCs", "assay": "Random forest prediction of teratogenicity from metabolomics of spent media of dosed hESCs", "type": "cell-based, human", "conditions": "blind study; model trained on TS1, 142 mass features; circulating dose"}, "[2]": {"system": "WA09 hES cells", "assay": "Metabolomics of hES cells dosed in 96-well plates at three dose levels (Example 8)", "type": "cell-based, human", "description": "For metabolomic analysis, hES cells were dosed at the three concentrations for each chemical compound based on the cell viability data. Media controls (no cells), dosed media controls (no cells with dosed media), and controls (cells with undosed media) were also included in the experimental design (FIG. 1). Spent media was collected following a three day dosing period. The collected media was immediately quenched in acetonitrile then stored at −80° C. until later analysis.\nIn both the viability and metabolomics steps, 96-well plates were seeded with 250,000 cells/well of WA09 hES cells. These cells were “dosed” for three days. Each day for three days, the spent media was removed and replaced with […] media containing the designated compound. Each compound stock solution was made in DMSO and each final solution used to dose hES cells contained 0.1% DMSO. […]\nSamples were analyzed in both ESI positive and ESI negative modes on an Agilent QTOF instrument, operated in high resolution, extended dynamic range mode. […]\nPeak picking and feature creation were performed using the open source software library XCMS. Mass features (peaks) were detected using the centwave algorithm. […]\nThis filter selects against spurious low abundance features at the level of detection that are not reproducibly measured, and features that may not have peak shapes amenable to reproducible detection and/or integration. […]"}}, "data": [{"smiles": "CN(C)CCOC(C)(c1ccccc1)c1ccccn1", "note": "(stereo not drawn) [Doxylamine]", "values": [{"measurement": "Predicted teratogenicity (random forest statistical model)", "setting": "[1]", "value": "Non"}, {"measurement": "Dimethylarginine (DMA) change", "setting": "[2]; at least two dose levels", "value": "increased secretion"}, {"measurement": "Malic acid change", "setting": "[2]; high dose levels", "value": "extreme fold changes"}]}]}
